The record followed here is patent publication US12351582B2, “Aurora kinase inhibitors and uses thereof” (WIGEN BIOMEDICINE TECHNOLOGY (SHANGHAI) CO., LTD., priority 2019, dated 2025).

SMILES strings stand for the structures.

One series deals with T1, Aurora-A (Homo sapiens, UniProt O14965).
T1 sequence (O14965 1-403): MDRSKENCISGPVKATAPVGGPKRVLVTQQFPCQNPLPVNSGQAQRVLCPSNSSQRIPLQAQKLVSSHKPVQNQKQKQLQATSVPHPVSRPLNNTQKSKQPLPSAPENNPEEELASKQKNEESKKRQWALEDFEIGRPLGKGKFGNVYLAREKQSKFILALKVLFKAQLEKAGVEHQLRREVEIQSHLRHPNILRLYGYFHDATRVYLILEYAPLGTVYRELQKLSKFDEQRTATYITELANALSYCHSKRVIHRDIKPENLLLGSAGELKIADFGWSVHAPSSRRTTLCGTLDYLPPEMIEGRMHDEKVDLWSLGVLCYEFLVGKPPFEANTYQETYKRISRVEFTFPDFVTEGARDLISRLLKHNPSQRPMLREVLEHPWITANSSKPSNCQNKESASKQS
The experiment in a line: Aurora kinase activity assay (Caliper mobility shift), Aurora A. Type of series: biochemical. Particulars: for IC50: recombinant Aurora kinase, FAM labeled peptide substrate. The method, then:
(§1) The Caliper mobility shift assay was used to measure compound activity towards aurora kinase. 10 different concentrations of compounds were prepared by three-fold serial dilutions. Recombinant Aurora kinases in kinase buffer (20 mM HEPES, pH 7.5, 0.01% Triton X-100) were incubated with compounds for 10 minutes at room temperature. FAM labeled peptide substrates were subsequently added to initiate the reaction at 25° C. Conversion rates were measured by caliper after the reactions were terminated. […] Data were normalized to that of the vehicle control, and percentage of inhibition and IC50 were calculated.

The target of another series is Aurora-B (Homo sapiens, UniProt Q96GD4). Briefly: Aurora kinase activity assay (Caliper mobility shift), Aurora B. Type of series: biochemical. Particulars: recombinant Aurora kinase, FAM labeled peptide substrate. The method, then:
as §1

For another series, the system named is H1975 cells. The experiment in a line: H1975 proliferation assay. Format: cell-based. The note with it: Homo sapiens, NCI-H1975; 72 hours incubation, cell survival through ATP quantification. The method, then:
Cells were allowed to attach overnight and compounds were added to the cells for a further incubation of 72 hours. […] of CTL was added afterwards to measure cell survival through ATP quantification.

For a further series, the system named is H69 xenograft. Briefly: In vivo anti-tumor growth in H69 mouse xenografts. More on the design: species or system nude mouse. Particulars: for RTV (relative tumor volume, Vt/V0) / T/C / TGI (%) / Body weight (g) D1 / Tumor volume (mm^3) D1 / Body weight (g) D21 / Tumor volume (mm^3) D21: H69 xenograft, bid*21, oral; for Body weight (g) D1 / Tumor volume (mm^3) D1: D1 first day of treatment; for Body weight (g) D21 / Tumor volume (mm^3) D21: D21 last day of treatment. How it is done: Cells were passaged and harvested by trypsinization. 1×10^7 H69 cells were implanted in the left armpit of nude mouse. […] Tumor volume and body weight were measured every other day. Mice were sacrificed on day 21 of treatment. Relative tumor volume (RTV) and tumor growth (T/C), and tumor growth inhibition (TGI) were calculated and analyzed statistically.

The subject of a further series is H1975 xenograft. Briefly: In vivo anti-tumor growth in H1975 mouse xenografts. More on the design: species or system nude mice. The method, then: Cells were passaged and harvested by trypsinization. 8×10^6 cells were implanted in the left armpit of nude mice. […] Tumor volume and body weight were monitored every other day. Mice were sacrificed on day 21 of treatment. Relative tumor volume (RTV) and tumor growth (T/C), and tumor growth inhibition (TGI) were calculated and analyzed.

[1] abbreviates: Dosage 60, qd*21, oral gavage, D1 first day of treatment.
Where [2] appears, read: Dosage 60, qd*21, oral gavage, D21 last day of treatment.

Aurora-B, sequence (Q96GD4 whole entry): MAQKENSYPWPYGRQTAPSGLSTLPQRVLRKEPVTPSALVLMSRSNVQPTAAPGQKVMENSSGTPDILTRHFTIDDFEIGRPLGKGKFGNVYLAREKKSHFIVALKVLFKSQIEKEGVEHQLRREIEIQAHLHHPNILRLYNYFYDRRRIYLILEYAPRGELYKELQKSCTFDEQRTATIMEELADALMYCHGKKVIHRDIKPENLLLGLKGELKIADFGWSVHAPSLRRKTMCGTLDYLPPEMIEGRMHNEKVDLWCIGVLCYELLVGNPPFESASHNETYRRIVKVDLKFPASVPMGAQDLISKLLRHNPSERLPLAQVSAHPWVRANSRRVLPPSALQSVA

As for `CC1CC(Cc2nc(Nc3nccs3)ccc2F)(C(=O)O)CCN1Cc1cccc(Cl)c1F` (racemic) [Compound 1, 1-(3-chloro-2-fluorobenzyl)-4-((3-fluoro-6-(thiazol-2-ylamino)pyridin-2-yl)methyl)-2-methylpiperidine-4-carboxylic acid], the half-inhibitory concentration (IC50) (as a rule, the concentration that gives 50% inhibition) was determined as 0.64 nM at Aurora-A, 20 nM at Aurora-B and 22 nM in the series on H1975 cells.
On to `C[C@@H]1C[C@](Cc2nc(Nc3nccs3)ccc2F)(C(=O)O)CCN1Cc1cccc(Cl)c1F` [Compound 1-1, (2R,4R)-1-(3-chloro-2-fluorobenzyl)-4-((3-fluoro-6-(thiazol-2-ylamino)pyridin-2-yl)methyl)-2-methylpiperidine-4-carboxylic acid], for which the IC50 on Aurora-A was 0.4 nM. The “potency in words (comment on Table 2)” value on Aurora-A (towards Aurora-A, Aurora-B and H1975) was “more potent than its racemic mixture”. Further, the “H69 tumor growth in words (comment on Table 4)” value with H69 xenograft (2.5, 5 and 10 mg/kg twice daily, compared to LY-3295668) is listed as “blocks H69 tumor growth in a dose dependent manner with markedly improved efficacy compared to LY-3295668”. In the series on H69 xenograft (2.5 mg/kg), the “RTV (relative tumor volume, Vt/V0)” value amounted to 0.65; the T/C (commonly the ratio of treated to control) was determined as 20%; the “TGI (%)” value turned out to be 111.16%; the “Body weight (g) D1” value came to 15.99 g. In the series on H69 xenograft (2.5 mg/kg), the “Tumor volume (mm^3) D1” value stood at 287.46 mm^3, the “Body weight (g) D21” value amounted to 16.73 g and the “Tumor volume (mm^3) D21” value is listed as 180.58 mm^3. Moreover, in the series with H69 xenograft (5 mg/kg), the “RTV (relative tumor volume, Vt/V0)” value worked out at 0.33; the T/C came out at 10%; the “TGI (%)” value was determined as 120.31%; the “Body weight (g) D1” value came out at 15.91 g. Besides, in the series with H69 xenograft (5 mg/kg), the “Tumor volume (mm^3) D1” value is reported as 284.84 mm^3, the “Body weight (g) D21” value was 16.01 g and the “Tumor volume (mm^3) D21” value came out at 90.43 mm^3. For the same compound, in the series with H69 xenograft (10 mg/kg), the “RTV (relative tumor volume, Vt/V0)” value stood at 0.37; the T/C turned out to be 11%; the “TGI (%)” value was determined as 120.34%; the “Body weight (g) D1” value is listed as 16.16 g. Further, in the series with H69 xenograft (10 mg/kg), the “Tumor volume (mm^3) D1” value worked out at 287.92 mm^3, the “Body weight (g) D21” value is reported as 16.19 g and the “Tumor volume (mm^3) D21” value is recorded as 93.16 mm^3. Moreover, at Aurora-B, the IC50 worked out at 16 nM. This compound also came in with an IC50 with H1975 cells of 12 nM.
For the compound `CC1CC(Cc2nc(Nc3nccs3)ccc2F)(C(=O)O)CCN1Cc1ccnc(Cl)c1F` (stereo not shown) [Compound 3, 1-((2-chloro-3-fluoropyridin-4-yl)methyl)-4-((3-fluoro-6-(thiazol-2-ylamino)pyridin-2-yl)methyl)-2-methylpiperidine-4-carboxylic acid], the IC50 on Aurora-A turned out to be 0.73 nM; on Aurora-B, 321 nM; with H1975 cells, 195 nM.
Take `CC1CC(Cc2nc(Nc3nccs3)ccc2F)(C(=O)O)CCN1Cc1cccc2c1OC(F)(F)O2` (stereo not shown) [Compound 7, 1-((2,2-difluorobenzo[d][1,3]dioxol-4-yl)methyl)-4-((3-fluoro-6-(thiazol-2-ylamino)pyridin-2-yl)methyl)-2-methylpiperidine-4-carboxylic acid]: the IC50 on Aurora-A is 1.1 nM; on Aurora-B, 822 nM; in the series with H1975 cells, 99 nM.
For `CC1CC(Cc2nc(Nc3nccs3)ccc2F)(C(=O)O)CCN1C(C)c1cccc(Cl)c1F` (stereo not shown) [Compound 9, 1-(1-(3-chloro-2-fluorophenyl)ethyl)-4-((3-fluoro-6-(thiazol-2-ylamino)pyridin-2-yl)methyl)-2-methylpiperidine-4-carboxylic acid], the IC50 on Aurora-A was found to be 0.98 nM; on Aurora-B it was 126 nM; with H1975 cells it was 81 nM.
In the case of `[2H]C([2H])(c1cccc(Cl)c1F)N1CCC(Cc2nc(Nc3nccs3)ccc2F)(C(=O)O)CC1C` (stereo not shown) [Compound 13, 1-((3-chloro-2-fluorophenyl)methyl-d2)-4-((3-fluoro-6-(thiazol-2-ylamino)pyridin-2-yl)methyl)-2-methylpiperidine-4-carboxylic acid], the concentration for half-maximal inhibition (IC50) on Aurora-A stood at 0.74 nM. Besides, in the series on H1975 xenograft (Dosage 60, qd*21, oral gavage), the “RTV (relative tumor volume, Vt/V0)” value is given as 4.72 and the “TGI (%)” value is recorded as 81.07%. In the series on H1975 xenograft (setting [1]), the “Body weight (g) D1” value came out at 17.82 g and the “Tumor volume (mm^3) D1” value amounted to 82.50 mm^3. In the series on H1975 xenograft (setting [2]), the “Body weight (g) D21” value amounted to 19.00 g and the “Tumor volume (mm^3) D21” value turned out to be 373.74 mm^3. Also, the T/C in the series with H1975 xenograft (Dosage 60, qd*21, oral gavage, TRTV/CRTV × 100) is 24.11%. Moreover, in the series on H1975 xenograft (compared with LY-3295668), the “activity in vivo in words (comment on Table 3)” value is “shows greater activity in vivo”. At Aurora-B, the 50% inhibitory concentration (IC50) is 15 nM. The compound further showed an IC50 in the series on H1975 cells of 25 nM.
Regarding `CC1(C)CC(Cc2nc(Nc3nccs3)ccc2F)(C(=O)O)CCN1Cc1cccc(Cl)c1F` (stereo not shown) [Compound 20, 1-(3-chloro-2-fluorobenzyl)-4-((3-fluoro-6-(thiazol-2-ylamino)pyridin-2-yl)methyl)-2,2-dimethylpiperidine-4-carboxylic acid], the values for the IC50 on Aurora-A, at Aurora-B and with H1975 cells were 1.42 nM, 435 nM and 156 nM, respectively.
Turning to `Cc1cc(Nc2ccc(F)c(CC3(C(=O)O)CCN(C(=O)c4cccc(Cl)c4F)C(C)C3)n2)n[nH]1` (stereo not shown) [Compound 22, 1-(3-chloro-2-fluorobenzoyl)-4-((3-fluoro-6-((5-methyl-1H-pyrazol-3-yl)amino)pyridin-2-yl)methyl)-2-methylpiperidine-4-carboxylic acid], the figures for the IC50 at Aurora-A, on Aurora-B and in the series with H1975 cells were 1.21 nM, 1140 nM and 155 nM, respectively.
